Tests used:
[1] = Fluorescent quantum yield (QY) measurements; format: physicochemical; conditions: absence of αS PFFs (−); 100 μM dye
αS monomer = molecular target: T1, αS monomer (Homo sapiens, UniProt P37840); experiment: Fluorescence with αS monomer (with and without TMAO); format: binding; conditions: for λmax (λem): 10 μM probe, αS monomer 50 μM, excitation 418 nm; for fluorescence turn on with αS monomer: varied probe or protein concentration
T1 construct: intein-His6 (C, cleaved yes); made in house; host or cells: Escherichia coli BL21
Description: A 1 mM stock solution of 5k in DMSO and a 6.5 M stock solution of trimethylamine N-oxide (TMAO) in Tris buffer at pH 7.4 were prepared. From these stocks, the fluorescence measurements of probe 5k (10 μM) were carried out with and without αS monomer (50 μM) at different concentrations of TMAO (2 M, 4 M and 6 M) diluted with the Tris buffer. The solutions were mixed and then the spectra were measured using a Photon Technology International (PTI) QuantaMaste 40 fluorescence spectrometer with excitation at 418 nm.

[2] = molecular target: T2, amplified αS fibrils (AFs) from PDD patient brain extracts (Homo sapiens, UniProt P37840); experiment: Fluorescence measurements with PDD patient cases (lysate, AFs, PFFs); format: binding; conditions: lysate or AFs and probe 1 μM
T2 construct: made in house; host or cells: recombinant αS monomer, seeded with sarkosyl-insoluble extract of human frontal cortex (AD or PDD)
Description: All procedures were performed in accordance with local institutional review board guidelines. Written informed consent for autopsy and analysis of tissue sample data was obtained either from patients themselves or their next of kin. Frozen postmortem human frontal cortex brain tissues from three patients diagnosed with Alzheimer's disease (AD) and three patients diagnosed with Parkinson's disease with dementia (PDD) were selected for sequential extraction of αS aggregates based on a high burden of αS pathology determined by immunohistochemical staining. In brief, 5-10 g of frontal cortical gray matter were homogenized in five volumes (W/V) of high-salt (HS) buffer (50 mM Tris-HCl pH 7.4, 750 mM NaCl, 10 mM NaF, 5 mM EDTA) with protease and protein phosphatase inhibitors, incubated on ice for 20 min and centrifuged at 100,000×g for 30 min. The pellets were then re-extracted with HS buffer, followed by sequential extractions with five volumes of 1% Triton X-100-containing HS buffer and 1% Triton X-100-containing HS buffer with 30% sucrose. The pellets were then re-suspended and homogenized in 1% sarkosyl-containing HS buffer, rotated at room temperature for 2 h or at 4° C. overnight and centrifuged at 100,000×g for 30 min. […] These final sarkosyl-insoluble fractions are referred to as “brain extracts.: The amount of αS in the brain extracts was determined by sandwich ELISA using Syn9027, a mono-clonal antibody (Mab) to αS, and the protein concentrations were examined by bicinchoninic acid (BCA) assay. […]
Brain-derived αS aggregates in extract samples from three AD and three PDD cases (FIG. 38A) were used as seeds for templated aggregation of recombinant αS monomer. […] After seven days of incubation, amplification progress was determined by removing an aliquot and diluting tenfold in DPBS to a final αS concentration of 3.5 μM. […] Equal volumes of supernatant and pellet fractions were analyzed on SDS-PAGE gels and Western blot, with amplified aggregates migrating to the pellet fraction (FIG. 38B). […]

Row | Structure (SMILES) | Fluorescence QY [1] | λmax (λem) (αS monomer; 2 M TMAO) | λmax (λem) (αS monomer; 4 M TMAO) | λmax (λem) (αS monomer; 6 M TMAO) | fluorescence turn on with αS monomer (αS monomer) | fluorescence detection of PDD amplified fibrils (AFs) [2]
1 | Cc1c(C)n2c(/C=C/c3ccc(N)cc3)c(C)c(=O)n2c1=O [Compound 7j, (E)-3-(4-aminostyryl)-2,5,6-trimethyl-1H,7H-pyrazolo[1,2-a]pyrazole-1,7-dione] | 0.17% | – | – | – | – | –
2 | Cc1c(C)n2c(/C=C/c3ccc(N(C)C)cc3)c(C)c(=O)n2c1=O [Compound 7l, (E)-3-(4-(dimethylamino)styryl)-2,5,6-trimethyl-1H,7H-pyrazolo[1,2-a]pyrazole-1,7-dione] | 0.15% | 567 nm | 566 nm | 560 nm | occurs only with αS fibrils, not monomers | higher sensitivity to PDD derived AFs
3 | Cc1c(C)n2c(/C=C/c3ccc(N4CCOCC4)cc3)c(C)c(=O)n2c1=O [Compound 7k, (E)-2,3,6-trimethyl-5-(4-morpholinostyryl)-1H,7H-pyrazolo[1,2-a]pyrazole-1,7-dione] | – | – | – | – | no significant fluorescence turn on signal | –
4 | Cc1c(C)n2c(/C=C/C=C/c3ccc(N(C)C)cc3)c(C)c(=O)n2c1=O [Compound 7m, 3-((1E,3E)-4-(4-(dimethylamino)phenyl)buta-1,3-dien-1-yl)-2,5,6-trimethyl-1H,7H-pyrazolo[1,2-a]pyrazole-1,7-dione] | – | – | – | – | – | selective increase in fluorescence for PDD AFs compared to AD AFs
